{
  "source": "patent US8865684B2",
  "about": "“Morpholin-4-ium 4 methoxyphenyl (morpholino) phosphinodithioate (GYY4137) as a novel vasodilator agent” (National University of Singapore, priority 2009, dated 2014)",
  "key": {"[1]": {"assay": "H2S release in vitro, DTNB assay", "assay_type": "physicochemical", "conditions": "phosphate buffer"}, "[2]": {"conditions": "GYY4137 133 μmol/kg IV or IP; NaHS 20 μmol/kg IV; up to 180 minutes", "method": "Blood (0.5 mL) was withdrawn at timed intervals, anticoagulated with heparin (50 U/mL), and centrifuged (2000 g, 20 minutes). […] The zinc acetate assay measures free H2S plus related species including HS^− (hydrosulfide anion) and S2^− (sulfide). Accordingly, results for plasma H2S reported herein indicate the sum total of these species. All experiments on intact animals were undertaken with the approval of the local National University of Singapore Institutional Animal Care and Use Committee."}, "[3]": {"system": "phenylephrine-precontracted rat aorta", "assay": "tissue or blood"}, "[4]": {"system": "isolated perfused rat kidney", "assay": "Isolated perfused rat kidney, perfusion pressure", "method": "(§1) For experiments using perfused kidney or heart, Sprague-Dawley rats (male; weight, 230 to 270 g) were anesthetized as described above. […] In kidneys, dose-response curves (volumes <10 μL) were obtained for bolus-injected noradrenaline, angiotensin II, or U46619."}, "[5]": {"system": "Langendorff-perfused rat heart", "assay": "Langendorff-perfused rat heart", "conditions": "at 30 minutes", "method": "as §1"}, "[6]": {"system": "anesthetized rat", "assay": "Blood pressure in the anesthetized rat", "assay_type": "in vivo"}, "[7]": {"system": "rat aortic vascular smooth muscle cells (A10)", "assay": "cAMP and cGMP in cultured vascular smooth muscle cells (ELISA)", "assay_type": "cell-based", "conditions": "100 μmol/L, 45 minutes, isobutyl methylxanthine 300 μmol/L; control 11.3±1.4; n=6", "text": "Normal rat aortic vascular smooth muscle cells (A10) were obtained from the American Type Culture Collection (ATCC, Manassas, Va.)."}},
  "data": [
    {"compound": "S", "note": "[NaHS, sodium hydrosulfide]", "values": [
      {"measurement": "H2S release in the DTNB assay", "setting": "[1]", "result": "instantaneous"},
      {"measurement": "plasma H2S (H2S, HS−, S2−) concentration", "setting": "[2]", "result": "did not elevate"},
      {"measurement": "time course: response to a standard concentration of phenylephrine after drug", "setting": "[3]", "result": "did not reduce"},
      {"measurement": "vasorelaxant effect after removal of the endothelium or exposure to L-NAME or ODQ", "setting": "[3]", "result": "reduced"},
      {"measurement": "vasorelaxant effect in presence of KATP channel blockers (glibenclamide or PNU37883A)", "setting": "[3]", "result": "reduced"},
      {"measurement": "EC50", "setting": "[3]; Rattus norvegicus, phenylephrine-precontracted, read-out: EC50, relaxation of aortic rings", "result": "274 ± 22.2", "unit": "µM"},
      {"measurement": "Emax", "setting": "[3]; Rattus norvegicus, phenylephrine-precontracted, read-out: Emax, relaxation of aortic rings", "result": "63.4 ± 3.3", "unit": "%"},
      {"measurement": "approximate EC70", "setting": "[3]; concentration used for time course experiments", "result": "~300", "unit": "µM"},
      {"measurement": "transient fall in perfusion pressure", "setting": "[4]; bolus 10 nmol, n=10", "result": "10.2±2.8", "unit": "mm Hg"},
      {"measurement": "fall in perfusion pressure (biphasic response)", "setting": "[4]; bolus 5 μmol, n=8", "result": "11.6±4.5", "unit": "mm Hg"},
      {"measurement": "rise in perfusion pressure (biphasic response)", "setting": "[4]; bolus 5 μmol, n=8", "result": "22.7±6.7", "unit": "mm Hg"},
      {"measurement": "reduction of cardiac contractility (left ventricular diastolic pressure)", "setting": "[5]; 100 μmol/L", "result": "42.0±7.8", "unit": "%"},
      {"measurement": "reduction of heart rate", "setting": "[5]; NaHS 100 μmol/L", "result": "53.2±6.6", "unit": "%"},
      {"measurement": "effect on blood pressure", "setting": "[6]; NaHS 2.5 to 20 μmol/kg IV, GYY4137 26.6 to 133 μmol/kg IV", "result": "immediate, transient (10 to 30 seconds), and dose-related falls"}
    ]},
    {"compound": "C=C[C@@]1(C)CC(=O)[C@]2(O)[C@@]3(C)[C@@H](O)CCC(C)(C)[C@@H]3[C@H](O)[C@H](OC(C)=O)[C@@]2(C)O1", "note": "[forskolin]", "values": [
      {"measurement": "cAMP concentration", "setting": "[7]", "result": "79.6 ± 1.6", "unit": "nmol/L"}
    ]},
    {"compound": "C1CCC(N=C(NC23CC4CC(CC(C4)C2)C3)N2CCOCC2)CC1.Cl", "note": "[PNU37883A]", "values": [
      {"measurement": "blood pressure after PNU37883A", "setting": "[6]; 15 minutes after PNU37883A 26.2 μmol/kg IP, versus 105.6±3.5 before injection, n=5, P=0.053", "result": "117.2±3.7", "unit": "mm Hg"}
    ]}
  ]
}
